Source: publication PMC11909975, “Spectroscopic, docking, antiproliferative, and anticancer activity of novel metal derivatives of phenylacetohydrazide Schiff base on different human cancer cell lines” (BMC Chemistry, 2025)
In brackets after ≈: the same amount, converted by molar mass.

What was measured:
Type in all cases: cell-based
[1] = tested on: HepG2 (Human Liver cancer cell line); test: MTT cytotoxicity assay on liver cancer cells; settings: for SI (selectivity index), HEPG2: IC50 normal cells (HSF) / IC50 HEPG2
Method: (§1) Cells (HeLa, cervical cancer cells; MDA-MB-231, breast cancer cells; A375, skin cancer cells; A549, lung cancer cells; and HSF, normal skin fibroblasts cells) were supplied from Nawah Scientific (Cairo, Egypt). The cells were grown in DMEM medium supplemented with 10% fetal bovine serum (Gibco, Life Technologies Inc., UK) with 1% penicillin/streptomycin solution (Gibco). Cells were maintained at 37°C with 5% CO2.
(§2) MTT in vitro cytotoxic assay assesses the metabolic activity of viable cells through the reduction of the water-soluble yellow dye by mitochondrial succinate dehydrogenase into the insoluble purple formazan. In brief, cyanochalcone derivatives were dissolved in 100% dimethyl sulphoxide (DMSO, Serva, Heidelberg, Germany) and incubated with cells at the desired concentrations (0, 6.25, 12.5, 25, 50, 100, and 200 μM) for 48 h with the corresponding vehicle as control. 5-Florouracil (5FU) was used as a positive control. Following incubation, old media were discarded and MTT solution (50 μl, 0.5 mg/ml) was added. After 4 h of incubation, the insoluble formed formazan was dissolved in DMSO (100 μl) with a shaking plate for 15 min in a dark place. The absorbance readings were taken at 570 nm by an ELISA reader. Relative cell viability was calculated as a percentage of control untreated cells. The assay was done in four replicates. The dose–response curve was plotted using GraphPad Prism 8, and the values of IC50 (half-maximal inhibitory concentration) were determined using non-linear regression analysis. Finally, the selectivity index was calculated by dividing the IC50 for normal cells by the IC50 of cancer cells.
(§3) To evaluate the potential usefulness of the Schiff base ligand (H2L) and the reported complexes (Fe, Zn, Cd, Pt) as antitumor agents, five human cell lines (normal Cells; HSF, human colorectal cancer cell line; HCT119, liver carcinoma cell line; HEPG2, human triple-negative breast cancer; MDA, human lung cancer cell line; A549) were treated by the compounds and compared with cis-platin activity as a standard. The IC50 values (concentration that produces 50% inhibition of cell growth) and selectivity index of the H2L ligand, the metal complexes, and cis-platin were tabulated in Table 4.

[2] = tested on: HSF normal human skin fibroblast; test: MTT cytotoxicity assay on normal skin fibroblasts; settings: for SI (selectivity index), HSF: IC50 normal cells (HSF) / IC50 HSF
Method: as §1, §2, §3

[3] = tested on: HCT119 (Human Colorectal cancer cell line); test: MTT cytotoxicity assay on colorectal cancer cells; settings: for SI (selectivity index), HCT119: IC50 normal cells (HSF) / IC50 HCT119
Method: as §1, §2, §3

[4] = tested on: MDA (Human Breast cancer cell line); test: MTT cytotoxicity assay on triple-negative breast cancer cells; settings: for SI (selectivity index), MDA: IC50 normal cells (HSF) / IC50 MDA
Method: as §1, §2, §3

[5] = tested on: A549 (Human Lung cancer cell line); test: MTT cytotoxicity assay on lung cancer cells; settings: for SI (selectivity index), A549: IC50 normal cells (HSF) / IC50 A549
Method: as §1, §2, §3

[6] = HEPG2 liver carcinoma cells, MTT, 48 h
[7] = HSF normal skin fibroblasts, MTT, 48 h
[8] = HCT119 colorectal cancer cells (HCT116 in abstract), MTT, 48 h
[9] = MDA triple-negative breast cancer cells, MTT, 48 h
[10] = A549 lung cancer cells, MTT, 48 h

Row | Structure (SMILES) | IC50 (HEPG2) [1, 6] [µg/mL] | SI (selectivity index), HEPG2 [1] | IC50 (HSF) [2, 7] [µg/mL] | SI (selectivity index), HSF [2] | IC50 (HCT119) [3, 8] [µg/mL] | SI (selectivity index), HCT119 [3] | SI (selectivity index), MDA [4] | IC50 (MDA) [4, 9] [µg/mL] | IC50 (A549) [5, 10] [µg/mL] | SI (selectivity index), A549 [5] | IC50 ([1]; Homo sapiens, HEPG2 liver carcinoma cells, MTT, 48 h) [µg/mL] | IC50 ([2]; Homo sapiens, Skin fibroblast, HSF normal skin fibroblasts, MTT, 48 h) [µg/mL] | IC50 ([3]; Homo sapiens, HCT-116, HCT119 colorectal cancer cells (HCT116 in abstract), MTT, 48 h) [µg/mL] | IC50 ([4]; Homo sapiens, MDA triple-negative breast cancer cells, MTT, 48 h) [µg/mL] | IC50 ([5]; Homo sapiens, A549 lung cancer cells, MTT, 48 h) [µg/mL]
1 | CC(=O)[O-].CC(=O)[O-].[Cd+2].[Cd+2].[O-]c1ccc2ccccc2c1C=NN=C(O)Cc1ccccc1.[O-]c1ccc2ccccc2c1C=NN=C(O)Cc1ccccc1 [Cd complex] | 4.16 | 1.26 | 5.24 | 1.00 | 0.329 | 15.93 | 0.20 | 25.7 | 56.23 | 0.09 |  |  |  |  | 
2 | N.N.[Cl][Pt][Cl] [Cisplatin, reference compound] | 3.42 | 3.24 | 11.07 | 1.00 | 2.25 | 4.92 | 3.45 | 3.21 | 2.73 | 4.05 |  |  |  |  | 
3 | O=C(Cc1ccccc1)NN=Cc1c([O-])ccc2ccccc12.O=C(Cc1ccccc1)NN=Cc1c([O-])ccc2ccccc12.[Fe+2] [Fe complex] | 40.73 | 0.39 | 15.84 | 1.00 | 64.01 | 0.25 | 2.09 | 7.58 | 95.49 | 0.17 |  |  |  |  | 
4 | O=C(Cc1ccccc1)NN=Cc1c(O)ccc2ccccc12 [H2L, Nʹ-((2-hydroxynaphthalen-1-yl)methylene)-2-phenylacetohydrazide] |  | 2.88 |  | 1.00 |  | 0.32 | 3.63 |  |  | 3.63 | 31.6 (≈ 104 µM) | 91.2 (≈ 300 µM) | 285 (≈ 936 µM) | 25.1 (≈ 82.5 µM) | 25.1 (≈ 82.5 µM)
5 | C1=[N+]2N=C(Cc3ccccc3)[O][Zn-2]23[O+](c2ccc4ccccc4c21)[Zn-2]12[O]C(Cc4ccccc4)=N[N+]1=Cc1c(ccc4ccccc14)[O+]32.CC(=O)O.CC(=O)O (stereo not shown) [Zn complex] | 32.35 |  |  | 1.00 |  |  |  | 89.12 |  |  |  |  |  |  | 
